According to US20230255864A1, “NOVEL COMPOSITIONS COMBINING HEMP DERIVATIVES AND AT LEAST ONE PEPTIDE AND USE THEREOF” (FRANCE COSMEPHYL-LAB, priority 2020, published 2023):
Values joined by “and” are separate entries in the source; they are usually repeats but may differ in a detail not shown here. Identical values can stand only once. Like-named read-outs stand apart in the source and are kept apart here.

Experiments:
[1] = Cell viability of murine macrophages (WST-1 mitochondrial respiration), in parallel with NO release; assay type: cell-based; conditions: mouse, read-out: Cell viability (% as compared to the negative control)
Description: (§1) MURINS RAW 267.4 Macrophage cell line (Sigma-Aldrich, No. P6110401, Lot. 091006), low number of passages (less than 50).
(§2) Complete medium: DMEM with stabilized L-glutamine (Dulbecco's Minimum Essential Medium, PAN BIOTECH. Lot 974251) supplemented with Penicillin 100 IU/ml and streptomycin 100 μg/m1 (PAN BIOTECH, Lot 225614), and 10% inactivated calf serum (PAN BIOTECH, Lot P460518), pH 7.2, freshly prepared, stored for less than 3 weeks.
(§3) Cannabidiol (CBD) is diluted in DMSO (10 mg/mL storage solution), and subjected to an ultrasonic bath for 20 minutes. The Neutrazen™ solution is diluted in PBS (Phosphate buffer saline, Sigma-Aldrich).
(§4) RAW 267.4 murine macrophages were inoculated into 48-well tissue culture plates at a concentration of 1.10^5 cells/ml (200 μl/well) and incubated for 24 hours at 37° C. (5% CO2).
(§5) At the end of the incubation period, the culture medium was replaced with 200 μl of medium containing the appropriate concentrations of the material to be tested, and the cells were incubated at 37° C. (5% CO2) for one hour.
(§6) At the end of the incubation period, pro-inflammatory E. coli LPS was added to the cell cultures (1 μg/ml. Then the cells were incubated at 37° C. (5% CO2) for 24 hours.
(§7) In parallel with the evaluation of the release of NO, the cell viability was measured to validate the tests. Vital Stain Reagent WST-1 was used to measure cellular mitochondrial respiration. For this, the culture medium was decanted and 100 μl of WST-1 reagent ( 1/10 dilution) were added to each well. After an incubation period of 30 min at 37° C. (5% CO2), the Optical Density (OD) of each well was read at a wavelength of 450 nm by an Infinite M200 Pro fluorescence-luminescence reader (TECAN). The results obtained for the wells treated with the test material were compared with those of the untreated control wells (DMSO, 100% viability) and converted into percentage values.
(§8) Inhibition of NO release and inhibition of cell viability were expressed as a percentage relative to the negative controls: […]
(§9) The concentrations of test material causing a 50% decrease in NO release (IC50 (NO release)) and a 50% decrease in cell viability (IC50 (cell viability)) respectively were calculated using TableCurve software Version 2.0.
(§10) Analysis of the anti-inflammatory activity and of the cell viability of the cannabidiol/palmitoyl tripeptide-8 (Neutrazen™) association in a mixture by isobologram analysis. For each concentration of Neutrazen™ (0.01, 0.025, 0.05 and 0.1%), different concentrations of CBD are tested (0.01, 0.025, 0.05, 0.1, 0.25, 0.5, 1 and 2.5%) to determine both the production of NO and cell viability.
(§11) The results obtained with the different mixtures of CBD and Neutrazen™ made it possible to calculate the pairs of concentrations corresponding to a 50% reduction in the production of NO and a 50% reduction in cell viability.

[2] = tested on: RAW 267.4 murine macrophages; experiment: as above; assay type: cell-based
Description: as §1, §2, §3, §4, §5, §6, §7, §8, §9, §10, §11

C=C(C)[C@@H]1CCC(C)=C[C@H]1c1c(O)cc(CCCCC)cc1O [CBD]
viability at 25 h, 0.01 weight % ([1]; pH 7.2, CBD 0.01 weight % in mixture with NeutraZen 0.01%): 98.6%
viability at 25 h, 0.01 weight % ([1]; pH 7.2, CBD 0.01 weight % in mixture with NeutraZen 0.025%): 102%
viability at 25 h, 0.01 weight % ([1]; pH 7.2, CBD 0.01 weight % in mixture with NeutraZen 0.05%): 98%
viability at 25 h, 0.01 weight % ([1]; pH 7.2, CBD 0.01 weight % in mixture with NeutraZen 0.1%): 101%
viability at 25 h, 0.025 weight % ([1]; pH 7.2, CBD 0.025 weight % in mixture with NeutraZen 0.01%): 99.7%
viability at 25 h, 0.025 weight % ([1]; pH 7.2, CBD 0.025 weight % in mixture with NeutraZen 0.025%): 104%
viability at 25 h, 0.025 weight % ([1]; pH 7.2, CBD 0.025 weight % in mixture with NeutraZen 0.05%): 99.1%
viability at 25 h, 0.025 weight % ([1]; pH 7.2, CBD 0.025 weight % in mixture with NeutraZen 0.1%): 99.7%
viability at 25 h, 0.05 weight % ([1]; pH 7.2, CBD 0.05 weight % in mixture with NeutraZen 0.01%): 97.7%
viability at 25 h, 0.05 weight % ([1]; pH 7.2, CBD 0.05 weight % in mixture with NeutraZen 0.025%): 96.2%
viability at 25 h, 0.05 weight % ([1]; pH 7.2, CBD 0.05 weight % in mixture with NeutraZen 0.05%): 101%
viability at 25 h, 0.05 weight % ([1]; pH 7.2, CBD 0.05 weight % in mixture with NeutraZen 0.1%): 103%
viability at 25 h, 0.1 weight % ([1]; pH 7.2, CBD 0.1 weight % in mixture with NeutraZen 0.01%): 102%
viability at 25 h, 0.1 weight % ([1]; pH 7.2, CBD 0.1 weight % in mixture with NeutraZen 0.025%): 100%
viability at 25 h, 0.1 weight % ([1]; pH 7.2, CBD 0.1 weight % in mixture with NeutraZen 0.05%): 100%
viability at 25 h, 0.1 weight % ([1]; pH 7.2, CBD 0.1 weight % in mixture with NeutraZen 0.1%): 97.1%
viability at 25 h, 0.25 weight % ([1]; pH 7.2, CBD 0.25 weight % in mixture with NeutraZen 0.01%): 92.2%
viability at 25 h, 0.25 weight % ([1]; pH 7.2, CBD 0.25 weight % in mixture with NeutraZen 0.025%): 88.5%
viability at 25 h, 0.25 weight % ([1]; pH 7.2, CBD 0.25 weight % in mixture with NeutraZen 0.05%): 98.6%
viability at 25 h, 0.25 weight % ([1]; pH 7.2, CBD 0.25 weight % in mixture with NeutraZen 0.1%): 95.7%
viability at 25 h, 0.5 weight % ([1]; pH 7.2, CBD 0.5 weight % in mixture with NeutraZen 0.01%): 6.34%
viability at 25 h, 0.5 weight % ([1]; pH 7.2, CBD 0.5 weight % in mixture with NeutraZen 0.025%): 6.95%
viability at 25 h, 0.5 weight % ([1]; pH 7.2, CBD 0.5 weight % in mixture with NeutraZen 0.05%): 7.76%
viability at 25 h, 0.5 weight % ([1]; pH 7.2, CBD 0.5 weight % in mixture with NeutraZen 0.1%): 8.56%
viability at 25 h, 1 weight % ([1]; pH 7.2, CBD 1 weight % in mixture with NeutraZen 0.01%): 5.66%
viability at 25 h, 1 weight % ([1]; pH 7.2, CBD 1 weight % in mixture with NeutraZen 0.025%): 5.19%
viability at 25 h, 1 weight % ([1]; pH 7.2, CBD 1 weight % in mixture with NeutraZen 0.05%): 7.74%
viability at 25 h, 1 weight % ([1]; pH 7.2, CBD 1 weight % in mixture with NeutraZen 0.1%): 8.58%
viability at 25 h, 2.5 weight % ([1]; pH 7.2, CBD 2.5 weight % in mixture with NeutraZen 0.01%): 7.21%
viability at 25 h, 2.5 weight % ([1]; pH 7.2, CBD 2.5 weight % in mixture with NeutraZen 0.025%): 4.12%
viability at 25 h, 2.5 weight % ([1]; pH 7.2, CBD 2.5 weight % in mixture with NeutraZen 0.05%): 8.14%
viability at 25 h, 2.5 weight % ([1]; pH 7.2, CBD 2.5 weight % in mixture with NeutraZen 0.1%): 8.93%
viability at 25 h, 0.01 weight % ([1]; pH 7.2, sample alone at 0.01 weight %): 99.4%
viability at 25 h, 0.025 weight % ([1]; pH 7.2, sample alone at 0.025 weight %): 98.3%
viability at 25 h, 0.05 weight % ([1]; pH 7.2, sample alone at 0.05 weight %): 97.9%
viability at 25 h, 0.1 weight % ([1]; pH 7.2, sample alone at 0.1 weight %): 53.1%
viability at 25 h, 0.25 weight % ([1]; pH 7.2, sample alone at 0.25 weight %): 8.24%
viability at 25 h, 0.5 weight % ([1]; pH 7.2, sample alone at 0.5 weight %): 4.73%
viability at 25 h, 1 weight % ([1]; pH 7.2, sample alone at 1 weight %): 2.9%
Cell viability (% as compared to the negative control) ([2]; CBD 0.01 weight % in mixture with NeutraZen 0.01%): 99.54% and 101.55%
Cell viability (% as compared to the negative control) ([2]; CBD 0.01 weight % in mixture with NeutraZen 0.025%): 101.86%
Cell viability (% as compared to the negative control) ([2]; CBD 0.01 weight % in mixture with NeutraZen 0.05%): 101.83% and 101.55%
Cell viability (% as compared to the negative control) ([2]; CBD 0.01 weight % in mixture with NeutraZen 0.1%): 100.00%
Cell viability (% as compared to the negative control) ([2]; CBD 0.025 weight % in mixture with NeutraZen 0.01%): 99.24% and 100.77%
Cell viability (% as compared to the negative control) ([2]; CBD 0.025 weight % in mixture with NeutraZen 0.025%): 100.76% and 101.08%
Cell viability (% as compared to the negative control) ([2]; CBD 0.025 weight % in mixture with NeutraZen 0.05%): 101.22% and 100.77%
Cell viability (% as compared to the negative control) ([2]; CBD 0.025 weight % in mixture with NeutraZen 0.1%): 100.15%
Cell viability (% as compared to the negative control) ([2]; CBD 0.05 weight % in mixture with NeutraZen 0.01%): 98.93% and 100.62%
Cell viability (% as compared to the negative control) ([2]; CBD 0.05 weight % in mixture with NeutraZen 0.025%): 96.18% and 100.31%
Cell viability (% as compared to the negative control) ([2]; CBD 0.05 weight % in mixture with NeutraZen 0.05%): 100.61% and 100.62%
Cell viability (% as compared to the negative control) ([2]; CBD 0.05 weight % in mixture with NeutraZen 0.1%): 99.54% and 100.00%
Cell viability (% as compared to the negative control) ([2]; CBD 0.1 weight % in mixture with NeutraZen 0.01%): 100.00% and 102.63%
Cell viability (% as compared to the negative control) ([2]; CBD 0.1 weight % in mixture with NeutraZen 0.025%): 96.34% and 99.23%
Cell viability (% as compared to the negative control) ([2]; CBD 0.1 weight % in mixture with NeutraZen 0.05%): 100.00%
Cell viability (% as compared to the negative control) ([2]; CBD 0.1 weight % in mixture with NeutraZen 0.1%): 99.54%
Cell viability (% as compared to the negative control) ([2]; CBD 0.25 weight % in mixture with NeutraZen 0.01%): 89.77% and 93.81%
Cell viability (% as compared to the negative control) ([2]; CBD 0.25 weight % in mixture with NeutraZen 0.025%): 88.09% and 89.16%
Cell viability (% as compared to the negative control) ([2]; CBD 0.25 weight % in mixture with NeutraZen 0.05%): 100.31%
Cell viability (% as compared to the negative control) ([2]; CBD 0.25 weight % in mixture with NeutraZen 0.1%): 97.40% and 98.61%
Cell viability (% as compared to the negative control) ([2]; CBD 0.5 weight % in mixture with NeutraZen 0.01%): 7.18% and 6.81%
Cell viability (% as compared to the negative control) ([2]; CBD 0.5 weight % in mixture with NeutraZen 0.025%): 7.33% and 7.43%
Cell viability (% as compared to the negative control) ([2]; CBD 0.5 weight % in mixture with NeutraZen 0.05%): 9.16% and 7.59%
Cell viability (% as compared to the negative control) ([2]; CBD 0.5 weight % in mixture with NeutraZen 0.1%): 9.47% and 8.20%
Cell viability (% as compared to the negative control) ([2]; CBD 1 weight % in mixture with NeutraZen 0.01%): 5.95% and 5.57%
Cell viability (% as compared to the negative control) ([2]; CBD 1 weight % in mixture with NeutraZen 0.025%): 5.34% and 4.95%
Cell viability (% as compared to the negative control) ([2]; CBD 1 weight % in mixture with NeutraZen 0.05%): 7.43%
Cell viability (% as compared to the negative control) ([2]; CBD 1 weight % in mixture with NeutraZen 0.1%): 8.40% and 7.59%
Cell viability (% as compared to the negative control) ([2]; CBD 2.5 weight % in mixture with NeutraZen 0.01%): 5.65% and 4.33%
Cell viability (% as compared to the negative control) ([2]; CBD 2.5 weight % in mixture with NeutraZen 0.025%): 4.49%
Cell viability (% as compared to the negative control) ([2]; CBD 2.5 weight % in mixture with NeutraZen 0.05%): 7.79% and 6.97%
Cell viability (% as compared to the negative control) ([2]; CBD 2.5 weight % in mixture with NeutraZen 0.1%): 7.63% and 6.35%
Cell viability (% as compared to the negative control) ([2]; sample alone at 0.01 weight %): 99.69% and 100.15%
Cell viability (% as compared to the negative control) ([2]; sample alone at 0.025 weight %): 99.85% and 99.23%
Cell viability (% as compared to the negative control) ([2]; sample alone at 0.05 weight %): 94.50% and 93.81%
Cell viability (% as compared to the negative control) ([2]; sample alone at 0.1 weight %): 51.15% and 55.11%
Cell viability (% as compared to the negative control) ([2]; sample alone at 0.25 weight %): 5.65% and 5.73%
Cell viability (% as compared to the negative control) ([2]; sample alone at 0.5 weight %): 3.97% and 3.25%
Cell viability (% as compared to the negative control) ([2]; sample alone at 1 weight %): 1.98% and 1.86%
Cell viability (% as compared to the negative control) ([2]; sample alone at 2.5 weight %): 1.98% and 2.14% and 0.46%
